Test results from patent US7666639B2, “Plant deoxyribonucleoside kinase enzymes and their use” (priority 2002, dated 2010).

System: N-terminally deleted tomato dNK enzyme (TOM-ΔNdCK/dGK)
Assay: Deoxyribonucleoside kinase activity in extract of KY895 transformed with pGEX-2T-TOM-ΔNdCK/dGK
Format: biochemical, Lycopersicum esculentum
Details: pGEX-2T-TOM-ΔNdCK/dGK
Description: The E. coli strain KY895 (F^−, tdk-1, ilv) [Knecht W, Munch-Petersen B and Piskur J: Identification of residues involved in the specificity and regulation of the highly efficient multisubstrate deoxyribonucleoside kinase from Drosophila melanogaster; J. Mol. Biol. 2000 301 827-837] was transformed by various expression plasmids using standard techniques. Transformed KY895 strains were grown to an OD600 nm of 0.5-0.6 in LB/Ampicillin (100 μg/ml) medium at 37° C., and protein expression was induced by addition of 100 μM IPTG. The cells were further grown for 4 hours at 25° C. and subsequently harvested by centrifugation.
Pellets were stored at −80° C. until activity testing. Pellets were submitted to brief sonification in extraction buffer (50 mM Tris/HCl pH 7.5, 1 mM DTT, 10% (v/v) glycerol, 1% (v/v) Triton X-100, protease inhibitor cocktail (Complete™ from Roche Diagnostics).
Deoxyribonucleoside kinase activities were determined in the KY895 extracts by initial velocity measurements based on four time samples by the DE-81 filter paper assay using tritium-labelled nucleoside substrates. 4 to 20 μg extracts were used in the assays. The assay was done as described by Munch-Petersen et al. [Munch-Petersen, B., Knecht, W, Lenz, C., Sondergaard, L. & Piskur, J: Functional expression of a multisubstrate deoxyribonucleoside kinase from Drosophila melanogaster and its C-terminal deletion mutants; J. Biol. Chem. 2000 275 6673-6679].
The protein concentration was determined according to Bradford with BSA as standard protein [Bradford M M: A rapid and sensitive method for the quantitation of microgram quantities of protein utilizing the principle of protein-dye binding; Anal. Biochem. 1976 72 248-254]. SDS-PAGE was done according to the procedure of Laemmli [Laemmli U K: Cleavage of structural proteins during the assembly of the head of bacteriophage T4; Nature 1970 227 680-685], and proteins were visualized by Coomassie staining to verify recombinant protein expression.
The four natural deoxyribonucleosides were tested at a fixed concentration of 100 μM. The highest specific activity in each extract was set to 100%.

**Q.** How did the “ability to phosphorylate the deoxyribonucleoside (in words)” value turn out when Nc1ncnc2c1ncn2[C@H]1C[C@H](O)[C@@H](CO)O1 [dAdo, deoxyadenosine] was run?
**A.** Its value is “able to phosphorylate”.

**Q.** How did the “ability to phosphorylate the deoxyribonucleoside (in words)” value turn out when Nc1ccn([C@H]2C[C@H](O)[C@@H](CO)O2)c(=O)n1 [dCyd, deoxycytidine] was run?
**A.** The value was “able to phosphorylate”.
